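These data come from cells grown in 96-well plates and exposed to compound for 48 hours at five concentrations. GI50 = concentration required for 50% inhibition of growth. TGI is the concentration that stops growth completely.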
How the values were obtained:
Experiment in all cases: NCI anticancer screen, dose series, 48 h
SNB-19 CNS = tested on: SNB-19 CNS
NCI-H522 lung = tested on: NCI-H522 lung
K-562 leukemia = tested on: K-562 leukemia
CCRF-CEM leukemia = tested on: CCRF-CEM leukemia
SK-OV-3 ovarian = tested on: SK-OV-3 ovarian
HCC-2998 colon = tested on: HCC-2998 colon
LOX IMVI melanoma = tested on: LOX IMVI melanoma
HT29 colon = tested on: HT29 colon
MDA-MB-435 = tested on: MDA-MB-435
PC-3 prostate = tested on: PC-3 prostate

Compound	TGI (SNB-19 CNS)	TGI (NCI-H522 lung)	TGI (K-562 leukemia)	TGI (CCRF-CEM leukemia)	TGI (SK-OV-3 ovarian)	TGI (HCC-2998 colon)	TGI (LOX IMVI melanoma)	TGI (HT29 colon)	TGI (MDA-MB-435)	TGI (PC-3 prostate)	GI50 (SNB-19 CNS)	GI50 (NCI-H522 lung)	GI50 (K-562 leukemia)	GI50 (CCRF-CEM leukemia)	GI50 (SK-OV-3 ovarian)	GI50 (HCC-2998 colon)	GI50 (LOX IMVI melanoma)	GI50 (PC-3 prostate)	GI50 (HT29 colon)
NC1c2ccccc2Nc2ccccc21	27.7 µM	5.2 µM	14.5 µM	25.7 µM	23.6 µM	18.1 µM	13.2 µM	20.4 µM											
O=C(O)/C(Cc1cn[nH]n1)=N\O	> 100 µM	> 100 µM	> 100 µM	> 100 µM	> 100 µM		> 100 µM	> 100 µM	> 100 µM	> 100 µM									
COc1ccc(C(=O)c2cc(C)c(OC)c(C)c2)c(OC)c1NC(C)=O	> 100 µM		> 100 µM	> 100 µM	> 100 µM	> 100 µM	> 100 µM	> 100 µM		> 100 µM	265 nM	157 nM	937 nM	2400 nM	67.4 nM	310 nM	526 nM	77.6 nM	468 nM
CN1Cc2ccccc2/C=C\c2ccccc21	> 100 µM	> 100 µM		> 100 µM	> 100 µM	> 100 µM	> 100 µM	> 100 µM	> 100 µM	> 100 µM									
COCCOc1cc(C)cc(/C=C(C)/C=C/C2=C(C)CCCC2(C)C)n1	> 100 µM	> 100 µM			> 100 µM		> 100 µM	> 100 µM											
COc1ccc2nc(C(=O)c3ccccc3)c(C)cc2c1	> 100 µM	5.75 µM	> 100 µM	> 100 µM	15.8 µM	26.3 µM	> 100 µM	11 µM											
O=[N+]([O-])c1ccc(Cl)c(CNc2ncnc3c2ncn3C2CCCCO2)c1 (stereo not given)	> 100 µM	> 100 µM	> 100 µM		> 100 µM		> 100 µM	> 100 µM	30.3 µM	> 100 µM									
N#CC(C(=O)CCCC(=O)Nc1ccc(Cl)cc1Cl)c1ccccc1 (stereo not given)	> 100 µM		> 100 µM	> 100 µM	> 100 µM	> 100 µM	> 100 µM	> 100 µM											
COC1=CC(C2c3cc4c(cc3[C@@H](Nc3ccc(F)cc3)C3COC(=O)[C@H]23)OCO4)=CC(=O)C1=O (stereo not given in full)	> 66.5 µM	14.9 µM	> 49.2 µM	> 29 µM	23.1 µM	39.6 µM	35.6 µM	> 68.3 µM											
O=C(O)CCNS(=O)(=O)c1ccc2ccccc2c1	> 100 µM	> 100 µM	> 100 µM	> 100 µM	> 100 µM	> 100 µM	> 100 µM	> 100 µM											
Cc1cccc(C(=O)O)c1C(=O)c1cccc2ccccc12	> 100 µM	> 100 µM	> 100 µM	> 100 µM	> 100 µM	> 100 µM	> 100 µM	> 100 µM											
CC1OC(=O)C(O)=C1O (stereo not given)	> 100 µM	> 100 µM	> 100 µM	> 100 µM	> 100 µM	> 100 µM	> 100 µM	> 100 µM											
CCC(C)CC(C)CC(C)/C=C(\C)C1=C(C)CC(C)(O)O1 (stereo not given)		> 100 µM	> 100 µM	> 100 µM	> 100 µM	> 100 µM	> 100 µM	> 100 µM											

Reference: PubChem BioAssay (NCI)
